In patent US20250313535A1, “ALPHA 4 BETA 7 INTEGRIN MODULATORS AND USES THEREOF” (DICE MOLECULES SV, INC., priority 2022, published 2025):

Legend:
α4β7 integrin = α4β7 integrin (Homo sapiens (Human), UniProt P13612+P26010); test: Integrin Adhesion Assay: Protocol 4 (MAdCAM-coated plate, RPMI-8866 cells with stable LOF mutation of the ITGB1 gene); type: cell-based; conditions: Protocol 4; RPMI-8866 cells with LOF mutation of ITGB1, MAdCAM; read-out: Mean IC50 α4β7 KO
Summary of the method: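 RPMI-8866 cells with CRISPR/Cas9 knockout of ITGB1 (2×10^6/mL) were added to MAdCAM-coated wells with compound (1% DMSO) in HEPES/NaCl buffer with 1 mM MnCl2, 0.1 mM CaCl2 and 1% BSA, then incubated 1 h at 37 °C. After four washes, adherent cells were quantified by CellTiter-Glo luminescence. Percent inhibition versus DMSO and control compound was fitted to 4-parameter curves.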

α4β1 integrin = α4β1 integrin (Homo sapiens (Human), UniProt P05556+P13612); test: Integrin Adhesion Assay: Protocol 5 (VCAM-coated plate, RPMI-8866 cells with stable LOF mutation of the ITGB7 gene); type: cell-based; conditions: Protocol 5; RPMI-8866 cells with LOF mutation of ITGB7, VCAM; read-out: Mean IC50 α4β1 KO
Summary of the method: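 RPMI-8866 B cells with CRISPR/Cas9 ITGB7 knockout (clonal, verified by flow cytometry) adhered to VCAM-coated wells for 1 h at 37° C in HEPES/NaCl buffer with 1 mM MnCl2, 0.1 mM CaCl2, 1% BSA, 1% DMSO. Bound cells quantified by CellTiter-Glo luminescence after washing; % inhibition versus DMSO and control, 4-parameter fit.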

Sequence of α4β7 integrin (P13612 34-1032): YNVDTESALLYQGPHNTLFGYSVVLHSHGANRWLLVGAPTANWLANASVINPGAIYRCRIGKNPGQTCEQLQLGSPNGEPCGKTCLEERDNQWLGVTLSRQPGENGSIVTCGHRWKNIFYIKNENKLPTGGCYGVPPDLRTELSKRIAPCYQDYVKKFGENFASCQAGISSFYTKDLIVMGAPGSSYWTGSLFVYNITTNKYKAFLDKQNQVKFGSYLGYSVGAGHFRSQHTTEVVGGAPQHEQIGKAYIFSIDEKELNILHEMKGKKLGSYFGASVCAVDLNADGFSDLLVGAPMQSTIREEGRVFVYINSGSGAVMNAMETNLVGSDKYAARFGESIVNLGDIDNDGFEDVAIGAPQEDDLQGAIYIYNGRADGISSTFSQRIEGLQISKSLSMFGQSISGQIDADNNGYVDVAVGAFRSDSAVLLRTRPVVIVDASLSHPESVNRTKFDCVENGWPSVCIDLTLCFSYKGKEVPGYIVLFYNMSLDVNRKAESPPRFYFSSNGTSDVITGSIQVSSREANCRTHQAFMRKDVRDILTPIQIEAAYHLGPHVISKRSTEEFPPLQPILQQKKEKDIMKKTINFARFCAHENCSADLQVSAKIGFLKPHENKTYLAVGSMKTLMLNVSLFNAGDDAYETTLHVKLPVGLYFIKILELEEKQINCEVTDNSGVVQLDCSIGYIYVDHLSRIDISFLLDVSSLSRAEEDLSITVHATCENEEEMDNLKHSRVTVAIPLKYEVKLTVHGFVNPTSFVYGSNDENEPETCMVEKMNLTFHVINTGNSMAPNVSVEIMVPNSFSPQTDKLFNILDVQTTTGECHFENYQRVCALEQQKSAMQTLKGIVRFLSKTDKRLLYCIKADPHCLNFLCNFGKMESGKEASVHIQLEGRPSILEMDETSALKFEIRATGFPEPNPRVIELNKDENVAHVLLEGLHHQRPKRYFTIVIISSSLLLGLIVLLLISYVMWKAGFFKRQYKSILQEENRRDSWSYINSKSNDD
Sequence of α4β7 integrin (P26010 20-798): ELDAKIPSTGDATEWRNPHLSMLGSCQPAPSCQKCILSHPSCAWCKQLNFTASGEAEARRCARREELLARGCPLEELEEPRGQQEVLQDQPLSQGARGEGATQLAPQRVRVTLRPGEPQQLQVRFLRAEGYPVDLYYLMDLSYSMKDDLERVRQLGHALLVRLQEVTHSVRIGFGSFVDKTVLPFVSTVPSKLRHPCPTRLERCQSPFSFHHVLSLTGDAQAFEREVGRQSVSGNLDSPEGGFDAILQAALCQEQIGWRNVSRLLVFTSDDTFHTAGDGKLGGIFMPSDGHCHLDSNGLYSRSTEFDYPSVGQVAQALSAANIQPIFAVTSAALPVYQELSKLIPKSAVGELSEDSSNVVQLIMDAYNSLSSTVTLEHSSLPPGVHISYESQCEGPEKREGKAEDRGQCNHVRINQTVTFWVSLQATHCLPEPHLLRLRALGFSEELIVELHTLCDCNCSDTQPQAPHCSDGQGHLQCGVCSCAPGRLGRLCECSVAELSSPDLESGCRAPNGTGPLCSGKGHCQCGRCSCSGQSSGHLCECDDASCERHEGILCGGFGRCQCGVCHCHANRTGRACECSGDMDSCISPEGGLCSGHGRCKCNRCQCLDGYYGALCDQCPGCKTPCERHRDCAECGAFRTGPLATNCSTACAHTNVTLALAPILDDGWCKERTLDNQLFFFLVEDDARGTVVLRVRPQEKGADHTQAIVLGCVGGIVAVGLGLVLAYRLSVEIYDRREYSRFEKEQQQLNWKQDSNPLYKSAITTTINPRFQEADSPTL
Sequence of α4β1 integrin (P13612 34-1032): as the sequence (P13612 34-1032) above
Sequence of α4β1 integrin (P05556 21-798): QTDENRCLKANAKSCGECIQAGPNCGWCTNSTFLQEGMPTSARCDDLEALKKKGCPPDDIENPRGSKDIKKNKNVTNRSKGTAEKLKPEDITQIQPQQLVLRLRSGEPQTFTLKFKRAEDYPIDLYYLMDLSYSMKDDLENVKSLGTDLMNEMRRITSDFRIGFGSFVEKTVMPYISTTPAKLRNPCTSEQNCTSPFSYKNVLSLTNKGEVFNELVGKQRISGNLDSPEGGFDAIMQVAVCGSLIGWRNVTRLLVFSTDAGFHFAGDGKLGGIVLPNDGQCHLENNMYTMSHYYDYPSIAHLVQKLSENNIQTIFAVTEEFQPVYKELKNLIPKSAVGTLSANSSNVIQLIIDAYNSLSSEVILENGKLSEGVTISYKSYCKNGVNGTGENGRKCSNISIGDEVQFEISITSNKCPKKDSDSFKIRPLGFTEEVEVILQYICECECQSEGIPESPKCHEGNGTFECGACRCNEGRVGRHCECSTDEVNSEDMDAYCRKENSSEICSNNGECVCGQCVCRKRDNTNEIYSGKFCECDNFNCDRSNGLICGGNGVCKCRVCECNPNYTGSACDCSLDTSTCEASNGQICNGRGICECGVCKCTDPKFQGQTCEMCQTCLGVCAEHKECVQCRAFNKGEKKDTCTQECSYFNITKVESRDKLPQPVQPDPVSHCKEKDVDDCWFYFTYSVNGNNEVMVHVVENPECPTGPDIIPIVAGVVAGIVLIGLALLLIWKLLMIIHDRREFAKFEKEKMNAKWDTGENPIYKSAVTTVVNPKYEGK

| Compound | IC50 (α4β7 integrin) | IC50 (α4β1 integrin) |
| --- | --- | --- |
| Cn1c(=O)c(-c2cccc3c(C[C@H](NC(=O)C4(C(F)(F)F)CCN(CC(F)(F)F)CC4)C(=O)O)cccc23)c(C(F)(F)F)c2cc(CN3CCC(F)(F)CC3)ccc21 [Compound 835] | 10 to 100 nM | 100 to 1000 nM |
| Cn1c(=O)c(-c2cccc3c(C[C@H](NC(=O)C4(C(F)(F)F)CCN(CC(F)F)CC4)C(=O)O)cccc23)c(C(F)(F)F)c2cc(CN3CCC(F)(F)CC3)ccc21 [Compound 836] | 10 to 100 nM | 10 to 100 nM |
| Cn1c(=O)c(-c2cccc3c(C[C@H](NC(=O)C4(C(F)(F)F)CCN(CC(F)(F)F)CC4)C(=O)O)cccc23)c(C(F)(F)F)c2cc(CN3CCC(c4ccccc4)CC3)ccc21 [Compound 837] | 10 to 100 nM | 100 to 1000 nM |
| CC1CCN(Cc2ccc3c(c2)c(C(F)(F)F)c(-c2cccc4c(C[C@H](NC(=O)C5(C(F)(F)F)CCN(CC(F)(F)F)CC5)C(=O)O)cccc24)c(=O)n3C)CCC1(F)F (stereo partly drawn) [Compound 839] | 10 to 100 nM | 100 to 1000 nM |
| CC1CCN(Cc2ccc3c(c2)c(C(F)(F)F)c(-c2cccc4c(C[C@H](NC(=O)C5(C(F)(F)F)CCN(CC(F)F)CC5)C(=O)O)cccc24)c(=O)n3C)CCC1(F)F (stereo partly drawn) [Compound 840] | < 10 nM | 10 to 100 nM |
| COc1ccc(CN2CCC[C@H](F)C2)c(OC)c1-c1cccc2c(C[C@H](NC(=O)C3(C(F)(F)F)CCN(CC(F)(F)F)CC3)C(=O)O)cccc12 [Compound 842] | < 10 nM | 100 to 1000 nM |
| COc1ccc(CN2CC3CCC(C2)O3)c(OC)c1-c1cccc2c(C[C@H](NC(=O)C3(C(F)(F)F)CCN(CC(F)(F)F)CC3)C(=O)O)cccc12 [Compound 845] | 10 to 100 nM | > 1000 nM |
| Cn1c(=O)c(-c2cccc3c(C[C@H](NC(=O)C4(C(F)(F)F)CCN(CC(F)(F)F)CC4)C(=O)O)cccc23)c(C(F)(F)F)c2ccc(CN3CCC(F)(F)CC3)cc21 [Compound 846] | 10 to 100 nM | > 1000 nM |
| COc1cc(CN2CCC(F)(F)CC2)cc(C(F)(F)F)c1-c1cccc2c(C[C@H](NC(=O)C3(C(F)(F)F)CCN(CC(F)(F)F)CC3)C(=O)O)cccc12 [Compound 847] | 10 to 100 nM | > 1000 nM |
| COc1ccc(CCN2CCC(F)(F)CC2)c(C(F)(F)F)c1-c1cccc2c(C[C@H](NC(=O)C3(C(F)(F)F)CCN(CC(F)(F)F)CC3)C(=O)O)cccc12 [Compound 850] | 10 to 100 nM | 100 to 1000 nM |
| COc1cc(CN2CCC(F)CC2)cc(OC)c1-c1cccc2c(C[C@H](NC(=O)C3(C(F)(F)F)CCN(CC(F)(F)F)CC3)C(=O)O)cccc12 [Compound 851] | < 10 nM | 100 to 1000 nM |
| O=C(O)[C@H](Cc1cccc2c(-c3ncc(CN4CCC(F)(F)CC4)c4ccccc34)cccc12)NC(=O)C1(C(F)(F)F)CCN(CC(F)(F)F)CC1 [Compound 853] | 10 to 100 nM | > 1000 nM |
| CC1(C)CCN(Cc2cnc(-c3cccc4c(C[C@H](NC(=O)C5(C(F)(F)F)CCN(CC(F)(F)F)CC5)C(=O)O)cccc34)c3ccccc23)CC1 [Compound 854] | < 10 nM | 100 to 1000 nM |
| O=C(O)[C@H](Cc1cccc2c(-c3ncc(CN4CCOC(C(F)(F)F)C4)c4ccccc34)cccc12)NC(=O)C1(C(F)(F)F)CCN(CC(F)(F)F)CC1 (stereo partly drawn) [Compound 856] | 10 to 100 nM | > 1000 nM |
| O=C(O)[C@H](Cc1cccc2c(-c3ncc(CN4CCC5(CCCCC5)CC4)c4ccccc34)cccc12)NC(=O)C1(C(F)(F)F)CCN(CC(F)(F)F)CC1 [Compound 857] | 10 to 100 nM | > 1000 nM |
| O=C(O)[C@H](Cc1cccc2c(-c3ncc(CN4CCOC(C(F)(F)F)C4)c4ccccc34)cccc12)NC(=O)C1(C(F)(F)F)CCN(CC(F)F)CC1 (stereo partly drawn) [Compound 858] | 10 to 100 nM | > 1000 nM |
| O=C(O)[C@H](Cc1cccc2c(-c3ncc(CN4CCC[C@@H](F)C4)c4ccccc34)cccc12)NC(=O)C1(C(F)(F)F)CCN(CC(F)F)CC1 [Compound 860] | < 10 nM | > 1000 nM |
| O=C(O)[C@H](Cc1cccc2c(-c3ncc(CN4CCOCC4)c4ccccc34)cccc12)NC(=O)C1(C(F)(F)F)CCN(CC(F)(F)F)CC1 [Compound 862] | < 10 nM | > 1000 nM |
| C[C@@H]1CN(Cc2cnc(-c3cccc4c(C[C@H](NC(=O)C5(C(F)(F)F)CCN(CC(F)(F)F)CC5)C(=O)O)cccc34)c3ccccc23)C[C@H](C)O1 [Compound 863] | 10 to 100 nM | > 1000 nM |
| O=C(O)[C@H](Cc1cccc2c(-c3ncc(CN4CC5CC(C4)O5)c4ccccc34)cccc12)NC(=O)C1(C(F)(F)F)CCN(CC(F)(F)F)CC1 [Compound 867] | < 10 nM | > 1000 nM |
| O=C(O)[C@H](Cc1cccc2c(-c3ncc(CN4CCN(C5CC5)CC4)c4ccccc34)cccc12)NC(=O)C1(C(F)(F)F)CCN(CC(F)(F)F)CC1 [Compound 868] | < 10 nM | > 1000 nM |
| O=C(O)[C@H](Cc1cccc2c(-c3ncc(CN4CCCC(F)(F)CC4)c4ccccc34)cccc12)NC(=O)C1(C(F)(F)F)CCN(CC(F)(F)F)CC1 [Compound 869] | 10 to 100 nM | > 1000 nM |
| O=C(O)[C@H](Cc1cccc2c(-c3ncc(CN4CCOCC45CC5)c4ccccc34)cccc12)NC(=O)C1(C(F)(F)F)CCN(CC(F)(F)F)CC1 [Compound 870] | < 10 nM | > 1000 nM |
| O=C(O)[C@H](Cc1cccc2c(-c3ncc(CN4CCC(F)CC4)c4ccccc34)cccc12)NC(=O)C1(C(F)(F)F)CCN(CC(F)(F)F)CC1 [Compound 871] | 10 to 100 nM | > 1000 nM |
| CC1(C)CCCN(Cc2cnc(-c3cccc4c(C[C@H](NC(=O)C5(C(F)(F)F)CCN(CC(F)(F)F)CC5)C(=O)O)cccc34)c3ccccc23)C1 [Compound 873] | 10 to 100 nM | > 1000 nM |
| O=C(O)[C@H](Cc1cccc2c(-c3ncc(CN4CCC(C(F)(F)F)CC4)c4ccccc34)cccc12)NC(=O)C1(C(F)(F)F)CCN(CC(F)(F)F)CC1 [Compound 874] | 10 to 100 nM | > 1000 nM |
| CC1CCN(Cc2cnc(-c3cccc4c(C[C@H](NC(=O)C5(C(F)(F)F)CCN(CC(F)(F)F)CC5)C(=O)O)cccc34)c3ccccc23)CCC1(F)F (stereo partly drawn) [Compound 875] | 10 to 100 nM | > 1000 nM |

The remaining lines, values ahead:

| IC50 (α4β7 integrin) | IC50 (α4β1 integrin) | Compound |
| --- | --- | --- |
| < 10 nM | 10 to 100 nM | Cn1c(=O)c(-c2cccc3c(C[C@H](NC(=O)C4(C(F)(F)F)CCN(CC(F)F)CC4)C(=O)O)cccc23)c(C(F)(F)F)c2cc(CN3CCC(F)CC3)ccc21 [Compound 834] |
| < 10 nM | 10 to 100 nM | Cn1c(=O)c(-c2cccc3c(C[C@H](NC(=O)C4(C(F)(F)F)CCN(CC(F)F)CC4)C(=O)O)cccc23)c(C(F)(F)F)c2cc(CN3CCC(c4ccccc4)CC3)ccc21 [Compound 838] |
| < 10 nM | > 1000 nM | COc1ccc(CN2CCC[C@@H](F)C2)c(OC)c1-c1cccc2c(C[C@H](NC(=O)C3(C(F)(F)F)CCN(CC(F)(F)F)CC3)C(=O)O)cccc12 [Compound 841] |
| < 10 nM | > 1000 nM | COc1cnc(CN2CCC(C)C(F)(F)CC2)cc1-c1cccc2c(C[C@H](NC(=O)C3(C(F)(F)F)CCN(CC(F)(F)F)CC3)C(=O)O)cccc12 (stereo partly drawn) [Compound 843] |
| < 10 nM | 100 to 1000 nM | COc1ccc(CN2CCC(C(F)(F)F)CC2)c(OC)c1-c1cccc2c(C[C@H](NC(=O)C3(C(F)(F)F)CCN(CC(F)(F)F)CC3)C(=O)O)cccc12 [Compound 844] |
| 10 to 100 nM | > 1000 nM | COc1cc(CN2CCC[C@H](F)C2)cc(C(F)(F)F)c1-c1cccc2c(C[C@H](NC(=O)C3(C(F)(F)F)CCN(CC(F)(F)F)CC3)C(=O)O)cccc12 [Compound 848] |
| 10 to 100 nM | > 1000 nM | COc1cc(CN2CCC[C@@H](F)C2)cc(C(F)(F)F)c1-c1cccc2c(C[C@H](NC(=O)C3(C(F)(F)F)CCN(CC(F)(F)F)CC3)C(=O)O)cccc12 [Compound 849] |
| 10 to 100 nM | > 1000 nM | O=C(O)[C@H](Cc1cccc2c(-c3ncc(CN4CCC[C@H](F)C4)c4ccccc34)cccc12)NC(=O)C1(C(F)(F)F)CCN(CC(F)(F)F)CC1 [Compound 852] |
| 10 to 100 nM | > 1000 nM | O=C(O)[C@H](Cc1cccc2c(-c3ncc(CN4CCC[C@@H](F)C4)c4ccccc34)cccc12)NC(=O)C1(C(F)(F)F)CCN(CC(F)(F)F)CC1 [Compound 855] |
| < 10 nM | > 1000 nM | O=C(O)[C@H](Cc1cccc2c(-c3ncc(CN4CCC[C@H](F)C4)c4ccccc34)cccc12)NC(=O)C1(C(F)(F)F)CCN(CC(F)F)CC1 [Compound 859] |
| < 10 nM | 100 to 1000 nM | CC1(C)CCN(Cc2cnc(-c3cccc4c(C[C@H](NC(=O)C5(C(F)(F)F)CCN(CC(F)F)CC5)C(=O)O)cccc34)c3ccccc23)CC1 [Compound 861] |
| < 10 nM | > 1000 nM | O=C(O)[C@H](Cc1cccc2c(-c3nccc4cccc(CN5CCCCC5)c34)cccc12)NC(=O)C1(C(F)(F)F)CCN(CC(F)(F)F)CC1 [Compound 864] |
| 10 to 100 nM | > 1000 nM | O=C(O)[C@H](Cc1cccc2c(-c3ncc(CN4CC(F)C4)c4ccccc34)cccc12)NC(=O)C1(C(F)(F)F)CCN(CC(F)(F)F)CC1 [Compound 865] |
| < 10 nM | > 1000 nM | COC1CN(Cc2cnc(-c3cccc4c(C[C@H](NC(=O)C5(C(F)(F)F)CCN(CC(F)(F)F)CC5)C(=O)O)cccc34)c3ccccc23)C1 [Compound 866] |
| 10 to 100 nM | > 1000 nM | O=C(O)[C@H](Cc1cccc2c(-c3ncc(CN4CC5CCC(C4)O5)c4ccccc34)cccc12)NC(=O)C1(C(F)(F)F)CCN(CC(F)(F)F)CC1 [Compound 872] |
